Literature values as cited in US9527913B2, “Humanized pan-HER antibody compositions” (Symphogen A/S, priority 2012, dated 2016).
Like-named read-outs stand apart in the source and are kept apart here.

Test system: patient-derived xenograft models of pancreatic cancer
Details: cited from earlier work

In the case of `C#Cc1cccc(Nc2ncnc3cc(OCCOC)c(OCCOC)cc23)c1` [Erlotinib], the Erlotinib resistant (model ST191) is listed as “Yes”, the Erlotinib resistant (model ST334) is listed as “Yes” and the Erlotinib resistant (model ST383) is listed as “Yes”. The Erlotinib resistant (model ST385) was “Yes”, the Erlotinib resistant (model STS021) was “No” and the Erlotinib resistant (model STS058) was “Yes”. For the same molecule, the Erlotinib resistant (model STS059) was “Yes”.
